Where “and” joins values, the source holds several entries; their conditions need not be identical. Equal entries are not always repeated. Toxic doses and inconclusive results are not listed. Cut-off read from the data, not from the text of the source: active = T/C of 150% or more; inactive = T/C below 125%.
System: L1210 leukemia ip in BDF1 mice, survival T/C
Assay: NCI In Vivo Anticancer Drug Screen. Data for tumor model L1210 Leukemia (intraperitoneal) in B6D2F1 (BDF1) mice
Conditions: endpoint: mean survival time, higher = longer survival
Method in brief: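 Survival endpoint. Drug-treated group vs vehicle group, expressed as T divided by C. Tumor passaged by transplantation.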

[1] = dose: 100.0 mg/kg/injection, schedule: Q01DX009 (ip), vehicle: Klucel (hydroxypropylcellulose) (HPC)
[2] = dose: 100.0 mg/kg/injection, schedule: Q04DX003 (ip), vehicle: Klucel (hydroxypropylcellulose) (HPC)
[3] = dose: 200.0 mg/kg/injection, schedule: Q01DX009 (ip), vehicle: Klucel (hydroxypropylcellulose) (HPC)
[4] = dose: 200.0 mg/kg/injection, schedule: Q04DX003 (ip), vehicle: Klucel (hydroxypropylcellulose) (HPC)
[5] = dose: 400.0 mg/kg/injection, schedule: Q04DX003 (ip), vehicle: Klucel (hydroxypropylcellulose) (HPC)
[6] = dose: 100.0 mg/kg/injection, schedule: Q04DX002 (ip), vehicle: saline
[7] = dose: 200.0 mg/kg/injection, schedule: Q04DX002 (ip), vehicle: saline
[8] = dose: 400.0 mg/kg/injection, schedule: Q04DX002 (ip), vehicle: saline
[9] = dose: 100.0 mg/kg/injection, schedule: Q01DX001 (ip), vehicle: Klucel (hydroxypropylcellulose) (HPC)
[10] = dose: 200.0 mg/kg/injection, schedule: Q01DX001 (ip), vehicle: Klucel (hydroxypropylcellulose) (HPC)
[11] = dose: 400.0 mg/kg/injection, schedule: Q01DX001 (ip), vehicle: Klucel (hydroxypropylcellulose) (HPC)
[12] = dose: 25.0 mg/kg/injection, schedule: Q01DX009 (ip), vehicle: saline with Tween-80
[13] = dose: 100.0 mg/kg/injection, schedule: Q01DX009 (ip), vehicle: saline with Tween-80
[14] = dose: 200.0 mg/kg/injection, schedule: Q01DX009 (ip), vehicle: saline with Tween-80
[15] = dose: 400.0 mg/kg/injection, schedule: Q01DX009 (ip), vehicle: saline with Tween-80
[16] = dose: 100.0 mg/kg/injection, schedule: Q04DX002 (ip), vehicle: saline with Tween-80
[17] = dose: 100.0 mg/kg/injection, schedule: Q04DX003 (ip), vehicle: saline with Tween-80
[18] = dose: 200.0 mg/kg/injection, schedule: Q04DX002 (ip), vehicle: saline with Tween-80
[19] = dose: 200.0 mg/kg/injection, schedule: Q04DX003 (ip), vehicle: saline with Tween-80
[20] = dose: 400.0 mg/kg/injection, schedule: Q04DX002 (ip), vehicle: saline with Tween-80
[21] = dose: 400.0 mg/kg/injection, schedule: Q04DX003 (ip), vehicle: saline with Tween-80
[22] = dose: 400.0 mg/kg/injection, schedule: Q01DX009 (ip), vehicle: Klucel (hydroxypropylcellulose) (HPC)
[23] = dose: 50.0 mg/kg/injection, schedule: Q04DX002 (ip), vehicle: saline with Tween-80

Measured: T/C

C=CCc1ccc(OCCNC(=O)Nc2ccc(C)cc2[N+](=O)[O-])c(OC)c1
inactive: dose: 50.0 mg/kg/injection, schedule: Q01DX009 (ip), vehicle: Klucel (hydroxypropylcellulose) (HPC) 87 % of control | [1] 98 % of control | [2] 91 % of control | [3] 98 % of control | [4] 96 % of control | [5] 96 % of control

CC(=O)NCC(O)C(O)C(O)C(O)CO (stereo not drawn)
inactive: [6] 98 % of control | [7] 92 % of control | [8] 103 % of control

O=C(Nc1ccccc1)C(=O)c1ccccc1
inactive: [9] 98 % of control | [10] 93 % of control | [11] 106 % of control

Cc1cc(C(=O)O)ccc1S(=O)(=O)F
inactive: [12] 96 % of control | dose: 50.0 mg/kg/injection, schedule: Q01DX009 (ip), vehicle: saline with Tween-80 102 % of control | [13] 92 % of control and 100 % of control

COc1cccc(OC)c1OC(=O)Nc1cccc(SC)c1
inactive: [14] 91 % of control | [15] 95 % of control

COc1ccc(NC(=O)Nc2cccc(Cl)c2C)c(OC)c1
inactive: dose: 100.0 mg/kg/injection, schedule: Q01DX001 (ip), vehicle: saline with Tween-80 98 % of control | [13] 93 % of control and 89 % of control | [16] 93 % of control and 92 % of control | [17] 86 % of control | dose: 200.0 mg/kg/injection, schedule: Q01DX001 (ip), vehicle: saline with Tween-80 102 % of control | [14] 94 % of control and 86 % of control | [18] 104 % of control and 90 % of control | [19] 86 % of control | dose: 400.0 mg/kg/injection, schedule: Q01DX001 (ip), vehicle: saline with Tween-80 100 % of control | [15] 97 % of control and 110 % of control | [20] 90 % of control | [21] 91 % of control

CCOC(C)C(/C=N/Nc1ccccc1)=N\Nc1ccccc1 (stereo not drawn)
inactive: dose: 15.0 mg/kg/injection, schedule: Q01DX Z (ip), vehicle: carboxymethylcellulose (CMC) 98 % of control | dose: 30.0 mg/kg/injection, schedule: Q01DX Z (ip), vehicle: carboxymethylcellulose (CMC) 97 % of control | dose: 60.0 mg/kg/injection, schedule: Q01DX Z (ip), vehicle: carboxymethylcellulose (CMC) 97 % of control | dose: 120.0 mg/kg/injection, schedule: Q01DX Z (ip), vehicle: carboxymethylcellulose (CMC) 92 % of control

O=C(Nc1cccc(Cl)c1Cl)N1CCN(c2ccccc2)CC1
inactive: [1] 92 % of control | [3] 96 % of control | [22] 97 % of control

CON(C)CCOC(=O)c1ccc(N)cc1
inactive: [23] 104 % of control | [16] 107 % of control | [17] 89 % of control | [18] 104 % of control | [19] 95 % of control | [20] 104 % of control | [21] 99 % of control

Cc1ccc[n+]([O-])c1N=[N+]=[N-]
inactive: dose: 100.0 mg/kg/injection, schedule: Q04DX003 (ip), vehicle: saline 102 % of control | dose: 200.0 mg/kg/injection, schedule: Q04DX003 (ip), vehicle: saline 102 % of control | dose: 400.0 mg/kg/injection, schedule: Q04DX003 (ip), vehicle: saline 98 % of control

Nc1nc(=O)n(C2CC(O)C(CO)O2)cc1F (stereo not drawn)
inactive: dose: 30.0 mg/kg/injection, schedule: Q01DX Z (ip), vehicle: saline 105 % of control

COCC(O)CN1CCN(c2ccccc2C)CC1 (stereo not drawn)
inactive: dose: 25.0 mg/kg/injection, schedule: Q01DX009 (ip), vehicle: saline 108 % of control | dose: 50.0 mg/kg/injection, schedule: Q01DX009 (ip), vehicle: saline 93 % of control | dose: 100.0 mg/kg/injection, schedule: Q01DX009 (ip), vehicle: saline 100 % of control

O=C(Nc1ccc(S(=O)(=O)F)c(Cl)c1)Oc1ccccc1
inactive: dose: 100.0 mg/kg/injection, schedule: Q01DX001 (ip), vehicle: saline 96 % of control | dose: 200.0 mg/kg/injection, schedule: Q01DX001 (ip), vehicle: saline 96 % of control | dose: 400.0 mg/kg/injection, schedule: Q01DX001 (ip), vehicle: saline 96 % of control

Cc1nc(N)[nH]c(=O)c1CCCNCc1ccccc1
inactive: [9] 96 % of control | [10] 94 % of control | [11] 94 % of control

Clc1c(Cl)c(Cl)c([S][Pb]([c]2ccccc2)([c]2ccccc2)[c]2ccccc2)c(Cl)c1Cl
inactive: dose: 6.25 mg/kg/injection, schedule: Q01DX009 (ip), vehicle: saline with Tween-80 101 % of control | dose: 12.5 mg/kg/injection, schedule: Q01DX009 (ip), vehicle: saline with Tween-80 103 % of control | [12] 104 % of control and 88 % of control | dose: 25.0 mg/kg/injection, schedule: Q04DX002 (ip), vehicle: saline with Tween-80 96 % of control | [23] 99 % of control | [16] 86 % of control and 88 % of control

CCOC(=O)Cn1c(=O)c2ccccc2c2ccccc21
inactive: [2] 97 % of control | [4] 104 % of control | [5] 101 % of control

NP(=S)(Oc1ccc(Cl)cc1)Oc1ccc(Cl)cc1
inactive: dose: 6.25 mg/kg/injection, schedule: Q01DX009 (ip), vehicle: gum acacia 103 % of control | dose: 12.5 mg/kg/injection, schedule: Q01DX009 (ip), vehicle: gum acacia 110 % of control | dose: 12.5 mg/kg/injection, schedule: Q04DX002 (ip), vehicle: gum acacia 87 % of control | dose: 25.0 mg/kg/injection, schedule: Q01DX009 (ip), vehicle: gum acacia 100 % of control | dose: 25.0 mg/kg/injection, schedule: Q04DX002 (ip), vehicle: gum acacia 87 % of control | [6] 93 % of control | [7] 101 % of control | [8] 96 % of control

Cc1cc(C)c(C2=C(CC(=O)O)C(=O)c3ccccc3C2=O)c(C)c1
inactive: dose: 100.0 mg/kg/injection, schedule: Q04DX003 (ip), vehicle: gum acacia 92 % of control | dose: 200.0 mg/kg/injection, schedule: Q04DX003 (ip), vehicle: gum acacia 90 % of control | dose: 400.0 mg/kg/injection, schedule: Q04DX003 (ip), vehicle: gum acacia 90 % of control

c1cc[c]([Pb]([S]c2ccccn2)([c]2ccccc2)[c]2ccccc2)cc1
inactive: dose: 0.78 mg/kg/injection, schedule: Q01DX009 (ip), vehicle: Klucel (hydroxypropylcellulose) (HPC) 96 % of control | dose: 1.56 mg/kg/injection, schedule: Q01DX009 (ip), vehicle: Klucel (hydroxypropylcellulose) (HPC) 94 % of control | dose: 3.12 mg/kg/injection, schedule: Q01DX009 (ip), vehicle: Klucel (hydroxypropylcellulose) (HPC) 106 % of control and 89 % of control | dose: 25.0 mg/kg/injection, schedule: Q04DX002 (ip), vehicle: Klucel (hydroxypropylcellulose) (HPC) 100 % of control | dose: 50.0 mg/kg/injection, schedule: Q04DX002 (ip), vehicle: Klucel (hydroxypropylcellulose) (HPC) 88 % of control

Cc1cnc(N)c([N+](=O)[O-])c1
inactive: dose: 100.0 mg/kg/injection, schedule: Q01DX005 (ip), vehicle: Klucel (hydroxypropylcellulose) (HPC) 94 % of control | [1] 97 % of control | dose: 100.0 mg/kg/injection, schedule: Q04DX002 (ip), vehicle: Klucel (hydroxypropylcellulose) (HPC) 96 % of control | dose: 200.0 mg/kg/injection, schedule: Q01DX005 (ip), vehicle: Klucel (hydroxypropylcellulose) (HPC) 94 % of control | [3] 97 % of control | dose: 200.0 mg/kg/injection, schedule: Q04DX002 (ip), vehicle: Klucel (hydroxypropylcellulose) (HPC) 100 % of control | dose: 400.0 mg/kg/injection, schedule: Q01DX005 (ip), vehicle: Klucel (hydroxypropylcellulose) (HPC) 94 % of control | [22] 91 % of control | dose: 400.0 mg/kg/injection, schedule: Q04DX002 (ip), vehicle: Klucel (hydroxypropylcellulose) (HPC) 93 % of control

COc1ccc(NC(=O)Oc2ccc(-c3ccccc3)cc2Br)cc1
inactive: [2] 96 % of control | [4] 96 % of control | [5] 92 % of control

From PubChem BioAssay AID248 (DTP/NCI, 2004)
